Laboratory results reported in ChEMBL document CHEMBL1909046, “DrugMatrix in vitro pharmacology data”.

Experiments:
Glucocorticoid receptor = target: T1, Glucocorticoid receptor (Homo sapiens, UniProt P04150); conditions: hela s3
T1 sequence (P04150 whole entry): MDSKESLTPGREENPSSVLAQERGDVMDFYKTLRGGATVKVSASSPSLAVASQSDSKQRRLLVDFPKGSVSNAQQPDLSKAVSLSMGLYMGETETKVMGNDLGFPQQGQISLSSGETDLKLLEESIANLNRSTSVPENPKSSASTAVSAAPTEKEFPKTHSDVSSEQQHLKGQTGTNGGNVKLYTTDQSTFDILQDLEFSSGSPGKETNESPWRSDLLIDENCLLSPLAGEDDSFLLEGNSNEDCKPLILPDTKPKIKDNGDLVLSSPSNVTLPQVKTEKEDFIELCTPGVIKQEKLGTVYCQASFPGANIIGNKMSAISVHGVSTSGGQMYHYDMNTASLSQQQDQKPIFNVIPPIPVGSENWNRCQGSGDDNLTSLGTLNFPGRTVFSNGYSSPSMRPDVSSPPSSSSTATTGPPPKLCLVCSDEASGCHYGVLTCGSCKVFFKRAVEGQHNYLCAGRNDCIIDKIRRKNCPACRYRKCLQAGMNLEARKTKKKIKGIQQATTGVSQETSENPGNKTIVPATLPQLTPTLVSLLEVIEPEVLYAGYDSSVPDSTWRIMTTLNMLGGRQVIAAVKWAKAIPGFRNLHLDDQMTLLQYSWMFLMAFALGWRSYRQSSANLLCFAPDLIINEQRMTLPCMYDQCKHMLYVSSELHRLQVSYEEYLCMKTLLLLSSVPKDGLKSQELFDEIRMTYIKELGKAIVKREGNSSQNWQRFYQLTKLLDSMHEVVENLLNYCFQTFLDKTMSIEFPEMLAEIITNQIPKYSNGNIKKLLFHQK

[1] = target: T2, Muscarinic acetylcholine receptor M2 (Homo sapiens, UniProt P08172); type: cell membranes, CHO-K1, Membrane; conditions: cho-k1
T2 sequence (P08172 whole entry): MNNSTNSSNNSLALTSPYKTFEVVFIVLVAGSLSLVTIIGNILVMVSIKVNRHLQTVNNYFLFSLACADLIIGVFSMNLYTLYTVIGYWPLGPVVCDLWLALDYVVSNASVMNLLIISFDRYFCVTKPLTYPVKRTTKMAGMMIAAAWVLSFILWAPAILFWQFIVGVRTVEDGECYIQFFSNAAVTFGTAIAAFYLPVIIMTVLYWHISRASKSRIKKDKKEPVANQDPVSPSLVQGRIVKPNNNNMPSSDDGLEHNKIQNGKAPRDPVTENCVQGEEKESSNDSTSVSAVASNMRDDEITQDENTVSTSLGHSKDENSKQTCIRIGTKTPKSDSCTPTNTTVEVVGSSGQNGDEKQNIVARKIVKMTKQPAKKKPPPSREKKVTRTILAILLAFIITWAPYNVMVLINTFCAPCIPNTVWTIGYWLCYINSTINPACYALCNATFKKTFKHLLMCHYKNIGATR

Cytochrome P450 2C19 = Cytochrome P450 2C19 (Homo sapiens, UniProt P33261); conditions: bti-tn-5b1-4
Chain of Cytochrome P450 2C19 (P33261 whole entry): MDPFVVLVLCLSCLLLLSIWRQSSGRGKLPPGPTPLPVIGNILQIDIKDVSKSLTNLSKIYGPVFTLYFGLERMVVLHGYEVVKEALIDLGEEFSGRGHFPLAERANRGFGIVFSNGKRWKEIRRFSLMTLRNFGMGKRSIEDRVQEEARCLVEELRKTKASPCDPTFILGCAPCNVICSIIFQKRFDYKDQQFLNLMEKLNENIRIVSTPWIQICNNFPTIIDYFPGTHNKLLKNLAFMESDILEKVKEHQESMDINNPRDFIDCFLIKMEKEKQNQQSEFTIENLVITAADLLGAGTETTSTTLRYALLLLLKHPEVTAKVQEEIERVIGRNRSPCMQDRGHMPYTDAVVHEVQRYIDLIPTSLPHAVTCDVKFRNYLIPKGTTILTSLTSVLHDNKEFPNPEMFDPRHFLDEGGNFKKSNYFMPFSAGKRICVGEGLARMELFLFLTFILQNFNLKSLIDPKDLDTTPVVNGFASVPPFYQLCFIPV
Further: in other assays of this panel Not Active means under 50% inhibition at 10 µM.

COc1cccc2c1C(=O)c1c(O)c3c(c(O)c1C2=O)C[C@@](O)(C(=O)CO)C[C@@H]3O[C@H]1C[C@H](N)[C@@H](O)[C@H](C)O1 [EPIRUBICIN]
Not Active: IC50 (Glucocorticoid receptor) | IC50 [1] | IC50 (Cytochrome P450 2C19) | Ki (Cytochrome P450 2C19)

C[C@]12CC[C@@H]3c4ccc(O)cc4CC[C@H]3[C@@H]1CC[C@@H]2O [ESTRADIOL]
Not Active: IC50 [1] | IC50 (Cytochrome P450 2C19) | Ki (Cytochrome P450 2C19)

CC[C@@H](CO)NCCN[C@@H](CC)CO [ETHAMBUTOL]
Not Active: IC50 [1] | IC50 (Cytochrome P450 2C19) | Ki (Cytochrome P450 2C19)

Cc1ccc(S(=O)(=O)NC(=O)NN2CC3CCCC3C2)cc1 (configuration not stated) [GLICLAZIDE]
Not Active: IC50 [1] | IC50 (Cytochrome P450 2C19) | Ki (Cytochrome P450 2C19)

NC(=O)NO [HYDROXYUREA]
Not Active: IC50 (Glucocorticoid receptor) | IC50 [1]

CC(C)Cc1ccc(C(C)C(=O)O)cc1 (configuration not stated) [IBUPROFEN]
Not Active: IC50 (Glucocorticoid receptor) | IC50 [1] | IC50 (Cytochrome P450 2C19) | Ki (Cytochrome P450 2C19)

CCc1c2c(nc3ccc(OC(=O)N4CCC(N5CCCCC5)CC4)cc13)-c1cc3c(c(=O)n1C2)COC(=O)[C@]3(O)CC [IRINOTECAN]
Not Active: IC50 (Glucocorticoid receptor) | IC50 [1] | IC50 (Cytochrome P450 2C19) | Ki (Cytochrome P450 2C19)

CC(C(=O)O)c1cccc(C(=O)c2ccccc2)c1 (configuration not stated) [KETOPROFEN]
Not Active: IC50 [1] | IC50 (Cytochrome P450 2C19) | Ki (Cytochrome P450 2C19)

Nc1ccn([C@@H]2CS[C@H](CO)O2)c(=O)n1 [LAMIVUDINE]
Not Active: IC50 (Glucocorticoid receptor) | IC50 [1] | IC50 (Cytochrome P450 2C19) | Ki (Cytochrome P450 2C19)

O=S(=O)([O-])CCS.[Na+] [MESNA]
Not Active: IC50 (Glucocorticoid receptor) | IC50 [1] | IC50 (Cytochrome P450 2C19) | Ki (Cytochrome P450 2C19)

C#C[C@]1(O)CC[C@H]2[C@@H]3CCc4cc(OC)ccc4[C@H]3CC[C@@]21C [MESTRANOL]
Not Active: IC50 (Glucocorticoid receptor) | IC50 [1] | IC50 (Cytochrome P450 2C19) | Ki (Cytochrome P450 2C19)

CC(=O)Nc1cccc(O)c1 [METACETAMOL]
Not Active: IC50 [1] | IC50 (Cytochrome P450 2C19) | Ki (Cytochrome P450 2C19)

Cc1ncc([N+](=O)[O-])n1CCO [METRONIDAZOLE]
Not Active: IC50 [1] | IC50 (Cytochrome P450 2C19) | Ki (Cytochrome P450 2C19)

CC(C)(C(=O)c1cccnc1)c1cccnc1 [METYRAPONE]
Not Active: IC50 (Glucocorticoid receptor) | IC50 [1] | IC50 (Cytochrome P450 2C19) | Ki (Cytochrome P450 2C19)

COc1ccc2cc([C@H](C)C(=O)O)ccc2c1 [NAPROXEN]
Not Active: IC50 [1]

CC(C)[C@H]1CC[C@H](C(=O)N[C@H](Cc2ccccc2)C(=O)O)CC1 [NATEGLINIDE]
Not Active: IC50 (Glucocorticoid receptor) | IC50 [1] | IC50 (Cytochrome P450 2C19) | Ki (Cytochrome P450 2C19)

CCN[C@@H]1C[C@H](N)[C@@H](O[C@H]2OC(CN)=CC[C@H]2N)[C@H](O)[C@H]1O[C@H]1OC[C@](C)(O)[C@H](NC)[C@H]1O [NETILMICIN]
Not Active: IC50 [1]

COC(=O)C1=C(C)NC(C)=C(C(=O)OCC(C)C)C1c1ccccc1[N+](=O)[O-] (configuration not stated) [NISOLDIPINE]
Not Active: IC50 (Glucocorticoid receptor) | IC50 [1]

COc1ccc2[nH]c([S+]([O-])Cc3ncc(C)c(OC)c3C)nc2c1 (configuration not stated) [OMEPRAZOLE]
Not Active: IC50 [1] | IC50 (Cytochrome P450 2C19) | Ki (Cytochrome P450 2C19)

Cc1nccn1CC1CCc2c(c3ccccc3n2C)C1=O (configuration not stated) [ONDANSETRON]
Not Active: IC50 (Glucocorticoid receptor) | IC50 [1] | IC50 (Cytochrome P450 2C19) | Ki (Cytochrome P450 2C19)

CCn1cc(C(=O)O)c(=O)c2cc(F)c(N3CCN(C)CC3)cc21 [PEFLOXACIN]
Not Active: IC50 (Glucocorticoid receptor) | IC50 [1]

CCCCOc1ccc(OCCCN2CCOCC2)cc1 [PRAMOXINE]
Not Active: IC50 [1]

CCN(CC)CCOC(=O)c1ccc(N)cc1 [PROCAINE]
Not Active: IC50 [1] | IC50 (Cytochrome P450 2C19) | Ki (Cytochrome P450 2C19)

Cc1cc2cc3c(C)cc(=O)oc3c(C)c2o1 [TRIOXSALEN]
Not Active: IC50 [1] | IC50 (Cytochrome P450 2C19) | Ki (Cytochrome P450 2C19)
